Experimental data from publication PMC3914206.

How the values were obtained:
Format in all cases: binding
Conditions in all cases: Compound Concentration 10 µM
panel of 442 kinases [1] = target: T1, panel of 442 kinases (Homo sapiens, UniProt P08581, M1250T)
T1 construct: purchased KINOMEscan
Excerpt: (§1) We assessed the selectivity of members of this scaffold using the KINOMEscan methodology across a near comprehensive panel of 442 kinases [[18,27]].

panel of 442 kinases [2] = target: T2, panel of 442 kinases (Homo sapiens, UniProt P53355)
T2 construct: purchased KINOMEscan
T2 sequence (P53355 whole entry): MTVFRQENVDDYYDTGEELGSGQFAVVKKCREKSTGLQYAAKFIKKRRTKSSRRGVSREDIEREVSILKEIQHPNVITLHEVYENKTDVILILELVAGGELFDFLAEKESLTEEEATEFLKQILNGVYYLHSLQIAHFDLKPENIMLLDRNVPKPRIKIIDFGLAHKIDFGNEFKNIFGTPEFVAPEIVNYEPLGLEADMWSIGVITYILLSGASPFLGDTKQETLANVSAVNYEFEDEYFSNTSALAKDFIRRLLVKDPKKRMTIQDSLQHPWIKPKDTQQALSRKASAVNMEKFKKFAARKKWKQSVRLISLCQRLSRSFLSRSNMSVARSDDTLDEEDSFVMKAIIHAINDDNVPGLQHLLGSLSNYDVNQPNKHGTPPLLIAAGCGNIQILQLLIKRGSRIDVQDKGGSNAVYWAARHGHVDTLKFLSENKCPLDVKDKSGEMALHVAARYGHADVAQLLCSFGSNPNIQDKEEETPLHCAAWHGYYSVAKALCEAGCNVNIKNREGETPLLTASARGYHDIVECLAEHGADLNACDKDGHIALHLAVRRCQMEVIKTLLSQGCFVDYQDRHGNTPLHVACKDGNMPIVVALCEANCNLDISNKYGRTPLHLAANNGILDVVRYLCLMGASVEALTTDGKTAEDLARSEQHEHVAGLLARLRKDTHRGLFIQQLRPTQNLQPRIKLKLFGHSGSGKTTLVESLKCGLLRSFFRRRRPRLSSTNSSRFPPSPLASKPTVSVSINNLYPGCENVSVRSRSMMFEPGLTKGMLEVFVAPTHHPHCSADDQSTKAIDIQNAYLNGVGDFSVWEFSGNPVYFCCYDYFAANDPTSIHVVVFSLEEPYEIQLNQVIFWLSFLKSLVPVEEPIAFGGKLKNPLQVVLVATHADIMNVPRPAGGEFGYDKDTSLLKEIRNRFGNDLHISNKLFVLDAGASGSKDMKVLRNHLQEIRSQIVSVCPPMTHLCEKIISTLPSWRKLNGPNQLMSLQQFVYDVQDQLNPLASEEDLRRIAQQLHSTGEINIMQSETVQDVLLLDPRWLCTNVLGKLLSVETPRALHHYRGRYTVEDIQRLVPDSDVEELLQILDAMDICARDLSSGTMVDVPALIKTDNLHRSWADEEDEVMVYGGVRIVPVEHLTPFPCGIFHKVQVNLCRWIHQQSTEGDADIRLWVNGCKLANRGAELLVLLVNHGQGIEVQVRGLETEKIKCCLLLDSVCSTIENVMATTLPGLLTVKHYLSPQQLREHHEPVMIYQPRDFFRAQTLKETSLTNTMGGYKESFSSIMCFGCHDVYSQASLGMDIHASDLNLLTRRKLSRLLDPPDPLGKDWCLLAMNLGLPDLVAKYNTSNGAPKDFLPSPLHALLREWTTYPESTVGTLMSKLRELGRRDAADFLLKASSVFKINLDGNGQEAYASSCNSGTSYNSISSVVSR
Excerpt: as §1

panel of 442 kinases [3] = target: T3, panel of 442 kinases (Homo sapiens, UniProt Q16539)
T3 construct: purchased KINOMEscan
T3 sequence (Q16539 whole entry): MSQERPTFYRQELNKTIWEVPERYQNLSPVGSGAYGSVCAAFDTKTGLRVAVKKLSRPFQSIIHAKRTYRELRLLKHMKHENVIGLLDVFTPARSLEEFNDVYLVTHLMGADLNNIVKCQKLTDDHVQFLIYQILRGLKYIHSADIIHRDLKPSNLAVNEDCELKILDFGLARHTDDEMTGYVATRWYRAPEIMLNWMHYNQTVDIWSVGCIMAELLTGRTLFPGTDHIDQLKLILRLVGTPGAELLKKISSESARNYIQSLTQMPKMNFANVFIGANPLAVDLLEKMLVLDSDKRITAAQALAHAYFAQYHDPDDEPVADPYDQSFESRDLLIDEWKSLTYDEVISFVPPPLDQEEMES
Excerpt: as §1

panel of 442 kinases [4] = target: T4, panel of 442 kinases (Homo sapiens, UniProt Q8N4C8)
T4 construct: purchased KINOMEscan
T4 sequence (Q8N4C8 whole entry): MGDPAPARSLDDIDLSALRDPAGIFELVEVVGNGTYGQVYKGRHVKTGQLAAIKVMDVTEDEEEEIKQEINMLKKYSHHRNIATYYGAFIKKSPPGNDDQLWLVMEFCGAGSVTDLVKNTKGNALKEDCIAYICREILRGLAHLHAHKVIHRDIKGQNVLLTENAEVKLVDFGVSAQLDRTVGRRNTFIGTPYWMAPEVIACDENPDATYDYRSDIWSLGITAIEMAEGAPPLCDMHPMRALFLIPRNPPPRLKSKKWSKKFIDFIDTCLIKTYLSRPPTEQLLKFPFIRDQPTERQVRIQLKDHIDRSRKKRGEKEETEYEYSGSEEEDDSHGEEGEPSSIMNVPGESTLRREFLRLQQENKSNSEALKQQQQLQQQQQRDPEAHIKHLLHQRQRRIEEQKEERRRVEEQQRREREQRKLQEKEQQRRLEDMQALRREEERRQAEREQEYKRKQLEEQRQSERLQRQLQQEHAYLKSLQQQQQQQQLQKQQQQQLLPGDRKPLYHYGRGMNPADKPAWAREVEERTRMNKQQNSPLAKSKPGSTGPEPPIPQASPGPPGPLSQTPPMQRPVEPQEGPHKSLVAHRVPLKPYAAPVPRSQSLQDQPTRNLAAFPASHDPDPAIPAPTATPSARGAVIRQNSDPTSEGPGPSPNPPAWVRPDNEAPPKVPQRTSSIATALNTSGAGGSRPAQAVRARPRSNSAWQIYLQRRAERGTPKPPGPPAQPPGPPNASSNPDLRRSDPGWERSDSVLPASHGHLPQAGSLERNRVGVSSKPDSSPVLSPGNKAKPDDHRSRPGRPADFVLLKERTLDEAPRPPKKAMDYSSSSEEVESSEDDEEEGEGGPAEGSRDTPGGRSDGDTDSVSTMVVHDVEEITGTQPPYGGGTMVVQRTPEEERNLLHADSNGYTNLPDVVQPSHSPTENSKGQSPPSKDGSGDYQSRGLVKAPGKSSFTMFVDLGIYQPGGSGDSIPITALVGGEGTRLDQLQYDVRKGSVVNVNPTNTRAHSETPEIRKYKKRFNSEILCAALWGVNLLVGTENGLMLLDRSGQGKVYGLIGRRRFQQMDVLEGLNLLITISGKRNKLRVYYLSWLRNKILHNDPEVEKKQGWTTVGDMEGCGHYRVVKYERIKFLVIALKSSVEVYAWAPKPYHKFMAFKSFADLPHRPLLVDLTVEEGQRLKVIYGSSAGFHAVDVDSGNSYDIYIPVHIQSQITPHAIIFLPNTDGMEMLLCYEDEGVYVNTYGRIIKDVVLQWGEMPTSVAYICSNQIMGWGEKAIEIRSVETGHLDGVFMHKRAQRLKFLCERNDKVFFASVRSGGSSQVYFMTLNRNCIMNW
Excerpt: as §1

T1 sequence (P08581 25-1390 M1250T): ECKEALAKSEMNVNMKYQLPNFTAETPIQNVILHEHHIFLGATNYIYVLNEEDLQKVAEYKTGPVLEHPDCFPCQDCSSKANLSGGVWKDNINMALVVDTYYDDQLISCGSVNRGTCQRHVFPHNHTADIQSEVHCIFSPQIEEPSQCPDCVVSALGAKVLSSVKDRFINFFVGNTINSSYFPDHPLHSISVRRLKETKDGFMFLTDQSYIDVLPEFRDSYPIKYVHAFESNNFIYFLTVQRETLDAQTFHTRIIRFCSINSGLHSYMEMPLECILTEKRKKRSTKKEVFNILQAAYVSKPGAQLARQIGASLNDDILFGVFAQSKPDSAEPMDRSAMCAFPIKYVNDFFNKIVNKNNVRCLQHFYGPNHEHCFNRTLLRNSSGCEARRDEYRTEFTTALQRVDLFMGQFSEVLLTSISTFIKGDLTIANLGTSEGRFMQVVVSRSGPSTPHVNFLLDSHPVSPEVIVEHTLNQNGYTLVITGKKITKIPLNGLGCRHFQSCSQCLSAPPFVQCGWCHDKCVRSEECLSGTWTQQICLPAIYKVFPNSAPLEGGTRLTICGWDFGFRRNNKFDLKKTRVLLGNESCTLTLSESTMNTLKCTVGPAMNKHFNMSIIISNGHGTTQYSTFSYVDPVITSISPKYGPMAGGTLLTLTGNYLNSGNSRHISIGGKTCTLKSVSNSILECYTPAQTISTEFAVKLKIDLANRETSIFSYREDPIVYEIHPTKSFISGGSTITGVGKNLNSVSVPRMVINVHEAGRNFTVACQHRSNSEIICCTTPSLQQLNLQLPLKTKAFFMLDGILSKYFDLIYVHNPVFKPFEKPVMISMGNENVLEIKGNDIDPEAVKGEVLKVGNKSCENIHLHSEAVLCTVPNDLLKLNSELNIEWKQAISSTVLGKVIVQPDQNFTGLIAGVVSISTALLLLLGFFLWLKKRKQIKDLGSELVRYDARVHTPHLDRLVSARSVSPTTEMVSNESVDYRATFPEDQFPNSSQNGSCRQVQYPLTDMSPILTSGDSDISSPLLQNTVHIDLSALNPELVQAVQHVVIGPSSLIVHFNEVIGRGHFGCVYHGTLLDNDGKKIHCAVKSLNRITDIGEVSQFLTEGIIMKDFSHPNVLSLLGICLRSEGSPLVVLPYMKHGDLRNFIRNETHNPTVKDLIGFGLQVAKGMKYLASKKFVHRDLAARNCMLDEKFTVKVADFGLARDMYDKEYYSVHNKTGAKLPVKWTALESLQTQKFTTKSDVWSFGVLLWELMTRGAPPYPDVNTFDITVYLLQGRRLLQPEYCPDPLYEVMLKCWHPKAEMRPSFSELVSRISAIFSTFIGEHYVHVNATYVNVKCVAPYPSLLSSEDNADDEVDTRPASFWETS

SMILES	KINOMEscan: MET(M1250T) (panel of 442 kinases [1])	KINOMEscan: DAPK1 (panel of 442 kinases [2])	KINOMEscan: p38-alpha (panel of 442 kinases [3])	KINOMEscan: MINK (panel of 442 kinases [4])
COc1cc(C(=O)N2CCC(N3CCN(C)CC3)CC2)ccc1Nc1ncc2c(n1)N(C)c1ccccc1C(=O)N2C [15 (LRRK2-IN-1)]	96	73	87	77
CCOc1cc(C(=O)N2CCC(N3CCN(C)CC3)CC2)ccc1Nc1ncc2c(n1)N(C1CCCC1)c1ccccc1C(=O)N2C [Compound 26]	100	100	94	100
COc1cc(C(=O)N2CCC(N3CCN(C)CC3)CC2)ccc1Nc1ncc2c(n1)N1CCc3cccc(c31)C(=O)N2C [Compound 24]	88	19	–	36
COc1cc(C(=O)N2CCC(N3CCN(C)CC3)CC2)ccc1Nc1ncc2c(n1)N(C1CCCC1)c1ccccc1C(=O)N2C [Compound 25, 11-cyclopentyl-2-((2-methoxy-4-(4-(4-methylpiperazin-1-yl)piperidine-1-carbonyl)phenyl)amino)-5-methyl-5H-benzo[e]pyrimido[5,4-b][1,4]diazepin-6(11H)-one]	95	77	99	100
